According to PubChem BioAssay (NCI):
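The compound was tested at five concentrations on cells cultured in 96-well plates, with a 48-hour exposure period. TGI is the concentration that stops growth completely.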

Experiments:
Test in all cases: inhibition of tumour cell growth, NCI panel, 48 h
786-0 renal = system: 786-0 renal
A498 renal = system: A498 renal
ACHN renal = system: ACHN renal
COLO 205 colon = system: COLO 205 colon
HS 578T breast = system: HS 578T breast
IGROV1 ovarian = system: IGROV1 ovarian
K-562 leukemia = system: K-562 leukemia
MDA-MB-435 = system: MDA-MB-435
NCI-H23 lung = system: NCI-H23 lung
OVCAR-3 ovarian = system: OVCAR-3 ovarian
SK-MEL-2 melanoma = system: SK-MEL-2 melanoma
SK-OV-3 ovarian = system: SK-OV-3 ovarian
SNB-75 CNS = system: SNB-75 CNS
SW-620 colon = system: SW-620 colon
UACC-62 melanoma = system: UACC-62 melanoma

SMILES	TGI (786-0 renal) [µM]	TGI (A498 renal) [µM]	TGI (ACHN renal) [µM]	TGI (COLO 205 colon) [µM]	TGI (HS 578T breast) [µM]	TGI (IGROV1 ovarian) [µM]	TGI (K-562 leukemia) [µM]	TGI (MDA-MB-435) [µM]	TGI (NCI-H23 lung) [µM]	TGI (OVCAR-3 ovarian) [µM]	TGI (SK-MEL-2 melanoma) [µM]	TGI (SK-OV-3 ovarian) [µM]	TGI (SNB-75 CNS) [µM]	TGI (SW-620 colon) [µM]	TGI (UACC-62 melanoma) [µM]
CC1=CP(=O)(c2c(C(C)C)cc(C(C)C)cc2C(C)C)CCC1Cl (stereo not given)	36.7	30.4	31.5	29.8	> 100	40.9	35.6	37.6	39.4	23.4	31.4	36.3	28.6	69.9	26.1
CCCCCCCCCCCCCCCCNc1ccn(C2CC(O)C(COC(c3ccccc3)(c3ccccc3)c3ccc(OC)cc3)O2)c(=O)n1 (stereo not given)	> 100	> 100	> 100	> 100	> 100	> 100	> 100	> 100	> 100	> 100	> 100	> 100	> 100	> 100	> 100
C(#CP(c1ccccc1)c1ccccc1)P(C#CP(c1ccccc1)c1ccccc1)c1ccccc1	> 100	> 100	> 100	> 100	> 100	> 100	> 100	> 100		> 100	> 100	26.1	> 100	> 100	> 100
COc1ccccc1C(=O)NCC1CCCN2CCCCC12 (stereo not given)	> 100	> 100	> 100	> 100	> 100	> 100	> 100	> 100	> 100	> 100	> 100	> 100	> 100	> 100	> 100
CCCCOC(=O)C1CC[C@H]2[C@@H]3CCc4cc(OC(=O)c5cccc6c(=O)c7ccccc7[nH]c56)ccc4[C@H]3CC[C@]12C (stereo not given in full)	17	16.7	15.6	13.8	39.7	14.9	21.4	18	16.6	15.3	18.5	18	18.3	30.5	13.3
COc1ccccc1C1(c2c(OC)c(=O)c2=O)SCCCS1	> 100	> 100	> 100	> 100	> 100	> 100	> 100	> 100	> 100	> 100	> 100	> 100	> 100	> 100	> 100
COC1C(N(C)C)=C(c2ccccc2)C(=O)N2CCc3ccccc3C12 (stereo not given)	> 100	> 100	> 100	> 100	> 100	> 100		> 100	> 100		> 100	> 100	> 100	> 100	> 100
CC1=C(C)CC2(C=C(C(C)(C)C)C(=O)C(C(C)(C)C)=C2)SC1	36	35.4		32.1	36.8	29.4	> 100	43.6	57.1	36.1	26	71	34.2	41.1	95.6
Cc1ccc2c(c1)nc1n2C(N)=Nc2ccccc2S1	> 100	> 91.6	> 100	> 100	> 100	> 100	> 100	> 100	> 100	> 100	> 100	> 100	> 100	> 100	> 100
C(=Nc1ccc(-c2nc3ccccc3s2)cc1)c1ccc[nH]1	52.4	36.5	60.7	31.8	53.4	40.6	66.6	41	37	39.5	32	51.6	55.7	53.8	30.7
Cc1cccc(CC(Cc2ccc(C)cc2C(=O)O)C(=O)O)c1 (stereo not given)	> 100	> 100	> 100	> 100	> 100	> 100	> 100	> 100	> 100	> 100	> 100	> 100	> 100	> 100	96.5
CCN1CCC(CNC(=O)c2ccc(N)cc2)N1CC (stereo not given)	> 100	> 100	> 100	> 100	> 100	> 100	> 100	> 100	> 100	> 100	> 100	> 100	> 100	> 100	> 100
COc1cc(OC)c2c(c1)OC(c1cccnc1)C(c1ccccc1)C2=O (stereo not given)	> 100	> 100	> 100	> 100	> 100	> 100	> 100	> 100	> 100	> 100	> 100	> 100	> 100	> 100	> 100
CC(C)=CC[C@]12CCN(C)[C@H]1N(S(=O)(=O)c1ccccc1)c1ccccc12	> 90.9	> 100	> 100		> 90	> 100	> 100	> 71.6	> 100	> 74.4	55.5	> 100	> 100	> 100	> 62
COc1cc2c(/C=C3/C(=O)Nc4ccc(Cl)cc43)c(Cl)[nH]c2cc1C	15.4	22.9	10.8	2.44	19	5.43	6.3	0.57	7.13	3.14	29.8	10.6	5.71	19.7	2.87
